Test results published in article doi:10.1101/2025.05.09.652710v1 (bioRxiv, 2025).

Legend:
TMPRSS2 = TMPRSS2 (Homo sapiens, UniProt O15393, Q253D/R252D/R255K/S251D/S254D); assay: Fluorogenic kinetic enzyme inhibitor assay, TMPRSS2; type: biochemical
[1] = system: influenza A virus strain A/California/4/2009 (pdmH1N1); conditions: for H1N1 titer Log fold reduction (1 μM): virus strain A/California/4/2009 (pdmH1N1, 72 h, 1 μM); for H1N1 titer Log fold reduction (10 μM): virus strain A/California/4/2009 (pdmH1N1, 72 h, 10 μM)
HGFA = target: T1, HGFA (Homo sapiens, UniProt Q04756); assay: Fluorogenic kinetic enzyme inhibitor assay, HGFA; type: biochemical
T1 sequence (Q04756 373-655): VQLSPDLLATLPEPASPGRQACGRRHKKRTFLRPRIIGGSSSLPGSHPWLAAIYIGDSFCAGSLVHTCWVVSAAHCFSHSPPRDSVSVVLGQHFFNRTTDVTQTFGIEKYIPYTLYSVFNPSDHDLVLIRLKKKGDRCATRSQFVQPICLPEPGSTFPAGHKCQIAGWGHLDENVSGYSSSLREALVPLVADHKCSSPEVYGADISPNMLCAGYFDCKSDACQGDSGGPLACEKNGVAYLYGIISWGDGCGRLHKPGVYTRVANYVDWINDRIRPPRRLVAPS

thrombin = thrombin (Homo sapiens, UniProt P00734); assay: Chromogenic kinetic enzyme assay, thrombin; type: biochemical
[2] = system: chimeric VSV SARS-CoV-2 virus; conditions: for EC50: chimeric VSV virus
matriptase = target: T2, matriptase (Homo sapiens, UniProt Q9Y5Y6); assay: Fluorogenic kinetic enzyme inhibitor assay, matriptase; type: biochemical
T2 sequence (Q9Y5Y6 615-855): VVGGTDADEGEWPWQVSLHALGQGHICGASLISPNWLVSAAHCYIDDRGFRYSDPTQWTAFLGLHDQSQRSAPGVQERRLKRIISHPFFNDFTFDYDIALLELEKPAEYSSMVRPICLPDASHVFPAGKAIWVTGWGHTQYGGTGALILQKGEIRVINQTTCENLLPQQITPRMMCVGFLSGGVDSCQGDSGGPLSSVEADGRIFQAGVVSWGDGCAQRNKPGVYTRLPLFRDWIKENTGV

hepsin = hepsin (Homo sapiens, UniProt P05981); assay: Fluorogenic kinetic enzyme inhibitor assay, hepsin; type: biochemical
Sequence of hepsin (P05981 163-417 limits assumed): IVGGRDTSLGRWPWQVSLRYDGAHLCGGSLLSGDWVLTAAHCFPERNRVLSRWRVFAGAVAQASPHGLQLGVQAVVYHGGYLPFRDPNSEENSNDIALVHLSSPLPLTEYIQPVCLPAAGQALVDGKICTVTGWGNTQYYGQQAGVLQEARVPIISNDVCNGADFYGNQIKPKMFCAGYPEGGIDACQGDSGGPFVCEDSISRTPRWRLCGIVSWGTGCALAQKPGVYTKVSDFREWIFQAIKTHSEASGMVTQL
Sequence of hepsin (P05981 45-162 partner limits assumed): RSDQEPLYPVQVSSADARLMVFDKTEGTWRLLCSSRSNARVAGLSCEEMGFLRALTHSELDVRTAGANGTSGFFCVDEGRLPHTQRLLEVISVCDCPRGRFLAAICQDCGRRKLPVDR

Sequence of TMPRSS2 (O15393 109-492 S251D/R252D/Q253D/S254D/R255K limits assumed): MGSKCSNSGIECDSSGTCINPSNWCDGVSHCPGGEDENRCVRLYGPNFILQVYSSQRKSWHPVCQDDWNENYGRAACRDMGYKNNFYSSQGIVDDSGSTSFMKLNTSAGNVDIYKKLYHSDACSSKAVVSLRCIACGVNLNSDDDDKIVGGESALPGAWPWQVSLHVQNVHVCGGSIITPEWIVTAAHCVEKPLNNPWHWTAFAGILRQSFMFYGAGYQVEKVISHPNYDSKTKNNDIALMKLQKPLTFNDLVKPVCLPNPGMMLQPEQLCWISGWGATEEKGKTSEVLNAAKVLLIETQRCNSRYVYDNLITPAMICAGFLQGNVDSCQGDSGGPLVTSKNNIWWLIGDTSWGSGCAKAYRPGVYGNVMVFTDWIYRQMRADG

Compound	IC50 (TMPRSS2)	H1N1 Fold inhibition @ 0.001 μM [1]	H1N1 Fold inhibition @ 0.01 μM [1]	H1N1 Fold inhibition @ 0.1 μM [1]	H1N1 Fold inhibition @ 1 μM [1]	H1N1 Fold inhibition @ 10 μM [1]	H1N1 titer Log fold reduction (1 μM) [1]	H1N1 titer Log fold reduction (10 μM) [1]	IC50 (HGFA)	IC50 (thrombin)	VSV SARS-CoV-2 Chimera EC50 [2]	EC50 [2]	IC50 (matriptase)	IC50 (hepsin)
N=C(N)NCCC[C@H](NC(=O)[C@H](Cc1ccccc1)NC(=O)[C@H](CCC(N)=O)NC(=O)Cc1ccccc1)C(=O)c1nc2ccccc2s1 [CA1018, PhAc-QFR-kbt]	0.41 nM	–	–	–	–	–	–	–	–	–	–	–	–	–
N=C(N)NCCC[C@H](NC(=O)[C@H](Cc1ccccc1)NC(=O)[C@H](CCC(N)=O)NCc1ccccc1)C(=O)c1nc2ccccc2s1 [CA1022, Bn-QFR-kbt]	0.99 nM	–	–	–	–	–	–	–	–	–	–	–	–	–
N=C(N)NCCC[C@H](NC(=O)[C@H](Cc1ccccc1)NC(=O)[C@H](CCC(N)=O)NCCc1ccccc1)C(=O)c1nc2ccccc2s1 [CA1033, PhCH2CH2-QFR-kbt]	0.32 nM	–	–	–	–	–	–	–	–	–	–	–	–	–
CN(C)[C@@H](CCC(N)=O)C(=O)N[C@@H](Cc1ccccc1)C(=O)N[C@@H](CCCNC(=N)N)C(=O)c1nc2ccccc2s1 [CA1041, Dimethyl-QFR-kbt]	0.86 nM	–	–	–	–	–	–	–	–	–	–	–	–	–
N=C(N)NCCC[C@H](NC(=O)[C@H](Cc1ccccc1)NC(=O)[C@H](CCC(N)=O)NC(=O)c1ccccc1)C(=O)c1nc2ccccc2s1 [CA1043, Bz-QFR-kbt]	0.08 nM	1	1	5	968	774	3.1	3.0	–	–	–	–	–	–
N=C(N)NCCC[C@H](NC(=O)[C@H](Cc1ccccc1)NC(=O)[C@H](CCC(N)=O)N1CCCCC1)C(=O)c1nc2ccccc2s1 [CA1046, Pip-QFR-kbt]	8.2 nM	–	–	–	–	–	–	–	–	–	–	–	–	–
CS(=O)(=O)N[C@@H](CCC(N)=O)C(=O)N[C@@H](Cc1ccccc1)C(=O)N[C@@H](CCCNC(=N)N)C(=O)c1nc2ccccc2s1 [MF1099, MeSO2-QFR-kbt, reference compound]	–	–	–	–	–	–	–	–	341 nM	–	–	–	–	–
N=C(N)NCCC[C@H](NC(=O)[C@H](Cc1ccccc1)NC(=O)[C@H](CCC(N)=O)NS(=O)(=O)c1ccccc1)C(=O)c1nc2ccccc2s1 [MF1101, PhSO2-QFR-kbt]	1 nM	1	1	4	1014	1321	2.9	3.3	17 nM	–	–	–	–	–
N=C(N)NCCC[C@H](NC(=O)[C@H](Cc1ccccc1)NC(=O)[C@H](CCC(N)=O)NS(=O)(=O)C1CC1)C(=O)c1nc2ccccc2s1 [MF1104, CypSO2-QFR-kbt]	0.27 nM	1	2	1	617	916	2.9	3.0	4.2 nM	–	–	–	–	–
N=C(N)NCCC[C@H](NC(=O)[C@H](Cc1ccccc1)NC(=O)[C@H](CCC(N)=O)NS(=O)(=O)Cc1ccccc1)C(=O)c1nc2ccccc2s1 [MF1105, BnSO2-QFR-kbt]	0.07 nM	–	–	–	–	–	–	–	6.5 nM	> 20000 nM	–	–	–	–
CC(=O)NCC(=O)N[C@@H](CCC(N)=O)C(=O)N[C@@H](Cc1ccccc1)C(=O)N[C@@H](CCCNC(=N)N)C(=O)c1nc2ccccc2s1 [MM3122, Ac-GQFR-kbt]	0.03 nM	2.1	4.2	27.5	2216	2952	3.4	4.3	–	–	below nM	0.43 nM	–	–
CC(=O)N1CCC[C@H]1C(=O)N[C@@H](CCC(N)=O)C(=O)N[C@@H](Cc1ccccc1)C(=O)N[C@@H](CCCNC(=N)N)C(=O)c1nc2ccccc2s1 [MM3123, Ac-PQFR-kbt]	0.06 nM	–	–	–	–	–	1.3	2.6	–	–	below nM	0.86 nM	–	–
CSCC[C@H](NC(C)=O)C(=O)N[C@@H](CCC(N)=O)C(=O)N[C@@H](Cc1ccccc1)C(=O)N[C@@H](CCCNC(=N)N)C(=O)c1nc2ccccc2s1 [MM3130, Ac-MQFR-kbt]	0.14 nM	–	–	1	27	510	1.4	2.7	–	–	–	48 nM	–	–
CC(=O)N[C@@H](CC(C)C)C(=O)N[C@@H](CCC(N)=O)C(=O)N[C@@H](Cc1ccccc1)C(=O)N[C@@H](CCCNC(=N)N)C(=O)c1nc2ccccc2s1 [MM3131, Ac-LQFR-kbt]	0.03 nM	–	–	–	–	–	–	–	–	–	–	11 nM	–	–
CC[C@H](C)[C@H](NC(C)=O)C(=O)N[C@@H](CCC(N)=O)C(=O)N[C@H](C(=O)N[C@@H](CCCNC(=N)N)C(=O)c1nc2ccccc2s1)C(C)C [MM3180, Ac-IQVR-kbt]	0.03 nM	–	–	2	135	359	2.1	2.6	799 nM	> 20000 nM	–	12 nM	0.76 nM	0.11 nM
CC(=O)N1CCC[C@H]1C(=O)N[C@@H](CO)C(=O)N[C@@H](CCCCN)C(=O)N[C@@H](CCCNC(=N)N)C(=O)c1nc2ccccc2s1 [MM3194, Ac-PSKR-kbt]	0.29 nM	–	–	1	1	4	0	0.60	–	> 20000 nM	–	613 nM	–	–
CC[C@H](C)[C@H](NC(C)=O)C(=O)N[C@@H](CO)C(=O)N[C@@H](Cc1ccccc1)C(=O)N[C@@H](CCCNC(=N)N)C(=O)c1nc2ccccc2s1 [MM4009, Ac-ISFR-kbt]	0.07 nM	–	–	2	3	743	0.62	3.4	182 nM	> 20000 nM	–	40 nM	4.7 nM	0.86 nM
CC[C@H](C)[C@H](NC(C)=O)C(=O)N[C@@H](CCSC)C(=O)N[C@@H](Cc1ccccc1)C(=O)N[C@@H](CCCNC(=N)N)C(=O)c1nc2ccccc2s1 [MM4027, Ac-IMFR-kbt]	3 nM	–	–	–	–	–	–	–	–	> 20000 nM	–	92 nM	0.51 nM	1.3 nM
CC[C@H](C)[C@H](NC(C)=O)C(=O)N[C@@H](CCSC)C(=O)N[C@@H](Cc1ccccc1)C(=O)N[C@H](CCCNC(=N)N)C(=O)c1nc2ccccc2s1 [MM4027-1, Ac-IMFdR-kbt]	5.63 nM	–	–	–	–	–	–	–	234 nM	> 20000 nM	–	–	16.1 nM	3.16 nM
CC[C@H](C)[C@H](NC(C)=O)C(=O)N[C@H](C(=O)N[C@@H](Cc1ccccc1)C(=O)N[C@@H](CCCNC(=N)N)C(=O)c1nc2ccccc2s1)[C@@H](C)O [MM4028, Ac-ITFR-kbt]	0.06 nM	–	–	–	–	–	–	–	182 nM	> 20000 nM	–	103 nM	4.7 nM	0.86 nM
CC[C@H](C)[C@H](NC(C)=O)C(=O)N[C@H](C(=O)N[C@@H](Cc1ccccc1)C(=O)N[C@H](CCCNC(=N)N)C(=O)c1nc2ccccc2s1)[C@@H](C)O [MM4028-1, Ac-ITFdR-kbt]	1.42 nM	–	–	–	–	–	–	–	1120 nM	> 20000 nM	–	–	–	–
CC[C@H](C)[C@H](NC(C)=O)C(=O)N[C@@H](CCC(=O)O)C(=O)N[C@@H](Cc1ccccc1)C(=O)N[C@@H](CCCNC(=N)N)C(=O)c1nc2ccccc2s1 [MM4037, Ac-IEFR-kbt]	0.11 nM	–	–	–	–	–	–	–	276 nM	> 20000 nM	–	24 nM	2.4 nM	0.35 nM
CC[C@H](C)[C@H](NC(C)=O)C(=O)N[C@@H](CCC(=O)O)C(=O)N[C@@H](Cc1ccccc1)C(=O)N[C@H](CCCNC(=N)N)C(=O)c1nc2ccccc2s1 [MM4037-1, Ac-IEFdR-kbt]	0.38 nM	–	–	–	–	–	–	–	> 20000 nM	> 20000 nM	–	–	–	–
CC(=O)N[C@@H](Cc1c[nH]c2ccccc12)C(=O)N[C@@H](CC(C)C)C(=O)N[C@@H](Cc1ccccc1)C(=O)N[C@@H](CCCNC(=N)N)C(=O)c1nc2ccccc2s1 [ZFH7064, Ac-WLFR-kbt]	0.09 nM	–	–	–	–	–	–	–	–	–	–	–	–	–
N=C(N)NCCC[C@H](NC(=O)[C@H](Cc1ccccc1)NC(=O)[C@H](CCC(N)=O)NC(=O)OCc1ccccc1)C(=O)c1nc2ccccc2s1 [ZFH9141, Cbz-QFR-kbt]	0.42 nM	2	6	483	578	578	2.8	2.8	85 nM	–	–	–	–	–
